Data published in US10370391B2, “Hydrogen peroxide-activable, anti-oxidant compounds and methods using same” (Beth Israel Deaconess Medical Center, Inc., priority 2014, dated 2019).

Assays:
hepatic I/R injury = assay: Mouse model of hepatic I/R injury; type: in vivo; settings: ip at reperfusion
Protocol: FIG. 5, comprising FIGS. 5A-5D, is a set of images and bar graphs illustrating beneficial effects of BRAP in hepatic I/R (1 hour ischemia/12 hour reperfusion) injury. FIG. 5A: Hematoxylin and eosin (H/E) staining, DHE staining, and TUNEL staining of mouse liver after injection with HBA or BRAP. FIGS. 5B-5D: Quantitative analysis of serum ALT levels (FIG. 5B), cleaved caspase-3 protein expression (FIG. 5C), and TNF-α protein expression (FIG. 5D) after I/R injury. *p<0.01 relative to Veh I/R. †p<0.05 relative to HBA I/R (n=3˜4/group). Actin protein expression was used as an internal control for protein loading.
Experiments to evaluate whether BRAP reduces ROS generation and inhibits apoptosis were performed in a mouse model of […] I/R injuries. I/R was induced first by 1 hour of ligation of hepatic artery and portal vein followed by reperfusion of hepatic artery. BRAP or HBA was then administrated intraperitoneally (ip) at the time of reperfusion.
Hepatic I/R surgery was performed in 12 week-old male mice. Briefly, mice were anaesthetized, and midline incision was performed for laparotomy. After identifying the portal triad and biliary tree, the main trunk of hepatic artery and portal vein were clamped with vascular clip except for the vasculatures to the right lower lobe to achieve ischemic injury to approximately 70% of the liver. After 1 hour of ischemia, reperfusion was achieved by releasing the vascular clip. No vascular clamp was done for the sham group of mice.
For liver apoptosis assay, terminal deoxynucleotidyl transferase dUTP nick end labeling (TUNEL) staining was performed using a DeadEnd™ Fluorometric TUNEL kit (Promega, Madison, Wis.). Tissue sections were stained for nuclei (4′,6-diamidino-2-phenylindole (DAPI) staining) and apoptotic nuclei (TUNEL staining) and analyzed using a confocal laser scanning microscope. For heart tissues, TUNEL staining was performed using in situ cell death detection Kit, fluorescein (Roche Applied Science, Indianapolis, Ind.). To distinguish cardiomyocyte from non-cardiomyocyte nuclei, triple stain for nuclei (DAPI staining), apoptotic nuclei (TUNEL staining), and cardiomyocytes (α-Actinin staining) was used, and the stained sections were analyzed using confocal microscopy. A minimum of ˜10 high power fields with ˜2000 nuclei/field were counted for each sample.
Heart tissues were collected for molecular analyses were performed in Bae, et al., 2010, Am J Physiol Heart Circ Physiol 299:H1374. For RT-PCR ribosomal 18S primers acted as internal controls and all RT-PCR signals were normalized to the 18S signal of the corresponding RT products. For Western blot analysis, the protein content was measured using BCA assay. Actin protein expression was used as an internal control for protein loading.
The optimal cutting temperature (OCT)-embedded tissues were fixed in 4% paraformaldehyde. Tissue sections were incubated with 5 μM dihydroethidium (DHE, Sigma-Aldrich) at 37° C. for 30 min in a humidified chamber protected from light. Then, 4′,6-diamidino-2-phenylindole (DAPI) was applied. Images were acquired by confocal fluorescence microscope.

[1] = test system: renal ischemia/reperfusion (I/R) injury; assay: Kidney I/R injury model in the mouse, oral BRAP; type: in vivo
Protocol: BRAP administered orally was tested in a kidney I/R injury model in the mouse. In this model, one of the mouse's kidney was subjected to ischemia for about 30 min, using a combination of unilateral clamping and contralateral nephrectomy. BRAP was administered orally to the mice at two time points: the night before the surgery, and immediately before the I/R surgery. The read-out markers after I/R comprised: creatinine levels 24 hours after reperfusion; tumor necrosis factor alpha (TNF-α) and monocyte chemo-attractant protein-1 (MCP-1) (both inflammatory markers); DHE staining (monitoring for ROS generation); and TUNEL staining (monitoring for apoptosis).

[2] = test system: human embryonic kidney (HEK 293) cells; assay: MTT cytotoxicity assay, HEK 293; type: cell-based; settings: concentrations as high as 5 mM, 24 hours of incubation
Protocol: FIG. 8, comprising FIGS. 8A-8B, is a set of bar graphs illustrating biocompatibility profiles of BRAP assessed by MTT assay in human embryonic kidney (HEK 293) cells (FIG. 8A) and mouse embryonic fibroblast (NIH 3T3) cells (FIG. 8B).
3-(4,5-Dimethylthiazil-2yl)-2,5-diphenyltetrazolium bromide (MTT) assay was performed to evaluate the cytotoxicity of BRAP. NIH 3T3 cells were cultured at a density of 1×10^5 cells/well in a 24 well plate, and RAW 264.7 cells and HEK cells were also cultured at a density of 2×10^5 cells/well in a 24 well plate. Cells were incubated for 24 hours to reach ˜80% confluency. Cells were treated with various amount of BRAP and incubated for 24 hours. Each well was given 100 μL of MTT solution and was incubated for 4 h. 200 μL of dimethyl sulfoxide (DMSO) were added to each well to dissolve the resulting formazan crystals. After 10 min incubation, the absorbance at 570 nm was measured using a microplate reader (Biotek Instruments, Winooski, Vt.). The cell viability was determined by comparing the absorbance of BRAP treated cells that of control cells.

[3] = test system: mouse macrophage (RAW264.7) cells; assay: MTT cytotoxicity assay, RAW264.7; type: cell-based; settings: concentrations as high as 5 mM, 24 hours of incubation
Protocol: FIG. 3, comprising FIGS. 3A-3B, is a set of bar graphs illustrating biocompatibility profiles of BRAP assessed by MTT assay in mouse macrophage (RAW264.7) cells (FIG. 3A) and ARVC (FIG. 3B). FIG. 19 is a bar graph showing the results of assessing cytotoxicity of BRAP-encapsulated PLGA microparticles against RAW264.7 cells in vitro. Cell viability was determined by the 3-(4,5-dimethylthiazil-2yl)-2,5-diphenyltetrazolium bromide (MTT) assay 24 hours after addition of BRAP-encapsulated PLGA microparticles to cells. “PB” represents BRAP-encapsulated PLGA microparticles. The percentages indicate the weight content of BRAP in the particles. Values shown represent mean±s.d. (n=4). […] 3-(4,5-Dimethylthiazil-2yl)-2,5-diphenyltetrazolium bromide (MTT) assay was performed to evaluate the cytotoxicity of BRAP. NIH 3T3 cells were cultured at a density of 1×10^5 cells/well in a 24 well plate, and RAW 264.7 cells and HEK cells were also cultured at a density of 2×10^5 cells/well in a 24 well plate. Cells were incubated for 24 hours to reach ˜80% confluency. Cells were treated with various amount of BRAP and incubated for 24 hours. […] After 10 min incubation, the absorbance at 570 nm was measured using a microplate reader (Biotek Instruments, Winooski, Vt.). The cell viability was determined by comparing the absorbance of BRAP treated cells that of control cells.

[4] = oral administration, 24 hours after reperfusion

SMILES: CC1(CO)COB(c2ccc(CO)cc2)OC1 [BRAP, (4-(5-(hydroxymethyl)-5-methyl-1,3,2-dioxaborinan-2-yl)phenyl)methanol]
- ROS generation (DHE staining) in liver (hepatic I/R injury): higher inhibitory effects on ROS generation than HBA
- protection from I/R-induced liver damage (serum ALT) (hepatic I/R injury): concentration-dependent protection
- hepatic damages (histology, H/E) (hepatic I/R injury; 1 hour ischemia/12 hour reperfusion, same dose of HBA and BRAP): significant attenuation
- TNF-α protein expression (hepatic I/R injury; same dose of HBA and BRAP): significant inhibition
- cleaved caspase-3 protein expression (hepatic I/R injury; same dose of HBA and BRAP): significant inhibition
- hepatic apoptosis (TUNEL) (hepatic I/R injury; same dose of HBA and BRAP): significantly greater anti-apoptotic effects than HBA
- renal function (creatinine levels) ([1]; daily oral administration 8 mg/kg, after 4 days): significant improvement
- DHE staining (ROS generation) in kidney ([1]; oral administration): significantly reduced
- TUNEL staining (apoptosis) in kidney ([1]; oral administration): significantly reduced
- activation of MCP-1 in kidney [1, 4]: significantly attenuated
- activation of TNF-α in kidney [1, 4]: significantly attenuated
- cytotoxicity (MTT) [2]: no significant cytotoxicity
- cytotoxicity (MTT) [3]: no significant cytotoxicity
